The supplement of paper PMC10307832

What was measured:
Test in all cases: relative viability (nuclei count vs DMSO), 5 days (fraction); higher = more cells survive
NCI-H2009 = system: NCI-H2009
Outline: (§1)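 Lung cancer cell lines were seeded in 1536-well plates and dosed by pin tool the next day, with either a single drug or a fixed anchor-drug dose combined with five library-drug doses (not always all listed) spaced in √10 steps. Five days later, one step fixed the cells and stained their nuclei (final 0.05% Triton X-100, 1% formaldehyde, 1 ug/ml Hoechst), and nuclei were counted on 4× images. Relative viability is the nuclei count in treated wells divided by the count in vehicle wells, and each value is the median of duplicate plates.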

NCI-H2347 = system: NCI-H2347
Outline: as §1

COR-L 105 = system: COR-L 105
Outline: as §1

NCI-H2023 = system: NCI-H2023
Outline: as §1

NCI-H1792 = system: NCI-H1792
Outline: as §1

HCC-366 = system: HCC-366
Outline: as §1

NCI-H1755 = system: NCI-H1755
Outline: as §1

NCI-H23 = system: NCI-H23
Outline: as §1

HCC-15 = system: HCC-15
Outline: as §1

NCI-H1793 = system: NCI-H1793
Outline: as §1

NCI-H1437 = system: NCI-H1437
Outline: as §1

NCI-H650 = system: NCI-H650
Outline: as §1

NCI-H1915 = system: NCI-H1915
Outline: as §1

LC-2-ad = system: LC-2-ad
Outline: as §1

PC-14 = system: PC-14
Outline: as §1

NCI-H1395 = system: NCI-H1395
Outline: as §1

COR-L23 = system: COR-L23
Outline: as §1

201T = system: 201T
Outline: as §1

EMC-BAC-2 = system: EMC-BAC-2
Outline: as §1

NCI-H358 = system: NCI-H358
Outline: as §1

SK-MES-1 = system: SK-MES-1
Outline: as §1

CN1CCN(CCOc2cc(OC3CCOCC3)c3c(Nc4c(Cl)ccc5c4OCO5)ncnc3c2)CC1 [Saracatinib] + CS(=O)(=O)CCNCc1ccc(-c2ccc3ncnc(Nc4ccc(OCc5cccc(F)c5)c(Cl)c4)c3c2)o1 [Lapatinib] (partner 2 µM)
relative viability (NCI-H2009; first compound 0.02 µM): 0.992 | relative viability (NCI-H2009; first compound 0.2 µM): 0.889 | relative viability (NCI-H2009; first compound 0.6325 µM): 1.06 | relative viability (NCI-H2009; first compound 2 µM): 0.772 | relative viability (NCI-H2347; first compound 0.02 µM): 0.988 | relative viability (NCI-H2347; first compound 0.2 µM): 0.817 | relative viability (NCI-H2347; first compound 0.6325 µM): 1.12 | relative viability (NCI-H2347; first compound 2 µM): 0.903 | relative viability (COR-L 105; first compound 0.02 µM): 0.389 | relative viability (COR-L 105; first compound 0.2 µM): 0.281 | relative viability (COR-L 105; first compound 0.6325 µM): 0.311 | relative viability (COR-L 105; first compound 2 µM): 0.279 | relative viability (NCI-H2023; first compound 0.02 µM): 1.33 | relative viability (NCI-H2023; first compound 0.2 µM): 0.701 | relative viability (NCI-H2023; first compound 0.6325 µM): 0.998 | relative viability (NCI-H2023; first compound 2 µM): 0.698 | relative viability (NCI-H1792; first compound 0.02 µM): 0.968 | relative viability (NCI-H1792; first compound 0.2 µM): 0.778 | relative viability (NCI-H1792; first compound 0.6325 µM): 1.05 | relative viability (NCI-H1792; first compound 2 µM): 0.849 | relative viability (HCC-366; first compound 0.02 µM): 1.02 | relative viability (HCC-366; first compound 0.6325 µM): 1.04 | relative viability (HCC-366; first compound 2 µM): 0.707 | relative viability (NCI-H1755; first compound 0.02 µM): 1.01 | relative viability (NCI-H1755; first compound 0.2 µM): 0.816 | relative viability (NCI-H1755; first compound 0.6325 µM): 1.1 | relative viability (NCI-H1755; first compound 2 µM): 0.965 | relative viability (NCI-H23; first compound 0.02 µM): 1.13 | relative viability (NCI-H23; first compound 0.6325 µM): 1.28 | relative viability (NCI-H23; first compound 2 µM): 0.895 | relative viability (HCC-15; first compound 0.02 µM): 0.859 | relative viability (HCC-15; first compound 0.2 µM): 0.828 | relative viability (HCC-15; first compound 0.6325 µM): 0.961 | relative viability (HCC-15; first compound 2 µM): 0.854 | relative viability (NCI-H1793; first compound 0.02 µM): 0.894 | relative viability (NCI-H1793; first compound 0.2 µM): 0.587 | relative viability (NCI-H1793; first compound 0.6325 µM): 0.974 | relative viability (NCI-H1793; first compound 2 µM): 0.76 | relative viability (NCI-H1437; first compound 0.02 µM): 0.884 | relative viability (NCI-H1437; first compound 0.2 µM): 0.841 | relative viability (NCI-H1437; first compound 0.6325 µM): 0.783 | relative viability (NCI-H1437; first compound 2 µM): 0.757 | relative viability (NCI-H650; first compound 0.02 µM): 1 | relative viability (NCI-H650; first compound 0.2 µM): 0.85 | relative viability (NCI-H650; first compound 0.6325 µM): 0.928 | relative viability (NCI-H650; first compound 2 µM): 1.17 | relative viability (NCI-H1915; first compound 0.02 µM): 0.987 | relative viability (NCI-H1915; first compound 0.2 µM): 0.917 | relative viability (NCI-H1915; first compound 0.6325 µM): 0.955 | relative viability (NCI-H1915; first compound 2 µM): 0.819 | relative viability (LC-2-ad; first compound 0.02 µM): 1.06 | relative viability (LC-2-ad; first compound 0.6325 µM): 0.998 | relative viability (LC-2-ad; first compound 2 µM): 0.761 | relative viability (PC-14; first compound 0.02 µM): 0.334 | relative viability (PC-14; first compound 0.2 µM): 0.26 | relative viability (PC-14; first compound 0.6325 µM): 0.305 | relative viability (PC-14; first compound 2 µM): 0.185 | relative viability (NCI-H1395; first compound 0.02 µM): 0.911 | relative viability (NCI-H1395; first compound 0.2 µM): 0.921 | relative viability (NCI-H1395; first compound 0.6325 µM): 0.953 | relative viability (NCI-H1395; first compound 2 µM): 0.733 | relative viability (COR-L23; first compound 0.02 µM): 0.947 | relative viability (COR-L23; first compound 0.2 µM): 0.571 | relative viability (COR-L23; first compound 0.6325 µM): 1.1 | relative viability (COR-L23; first compound 2 µM): 0.897 | relative viability (201T; first compound 0.02 µM): 1 | relative viability (201T; first compound 0.2 µM): 0.856 | relative viability (201T; first compound 0.6325 µM): 0.998 | relative viability (201T; first compound 2 µM): 0.859 | relative viability (EMC-BAC-2; first compound 0.02 µM): 0.91 | relative viability (EMC-BAC-2; first compound 0.2 µM): 0.792 | relative viability (EMC-BAC-2; first compound 0.6325 µM): 0.945 | relative viability (EMC-BAC-2; first compound 2 µM): 0.761 | relative viability (NCI-H358; first compound 0.02 µM): 0.471 | relative viability (NCI-H358; first compound 0.2 µM): 0.535 | relative viability (NCI-H358; first compound 0.6325 µM): 0.418 | relative viability (NCI-H358; first compound 2 µM): 0.384 | relative viability (SK-MES-1; first compound 0.02 µM): 0.442 | relative viability (SK-MES-1; first compound 0.2 µM): 0.425 | relative viability (SK-MES-1; first compound 0.6325 µM): 0.47 | relative viability (SK-MES-1; first compound 2 µM): 0.41

CN1CCN(CCOc2cc(OC3CCOCC3)c3c(Nc4c(Cl)ccc5c4OCO5)ncnc3c2)CC1 [Saracatinib] + CS(=O)(=O)N1CCN(Cc2cc3nc(-c4cccc5[nH]ncc45)nc(N4CCOCC4)c3s2)CC1 [Pictilisib] (partner 1 µM)
relative viability (NCI-H2009; first compound 0.02 µM): 0.759 | relative viability (NCI-H2009; first compound 0.2 µM): 0.465 | relative viability (NCI-H2009; first compound 0.6325 µM): 0.644 | relative viability (NCI-H2009; first compound 2 µM): 0.4 | relative viability (NCI-H2347; first compound 0.02 µM): 0.654 | relative viability (NCI-H2347; first compound 0.2 µM): 0.6 | relative viability (NCI-H2347; first compound 0.6325 µM): 0.772 | relative viability (NCI-H2347; first compound 2 µM): 0.527 | relative viability (COR-L 105; first compound 0.02 µM): 0.445 | relative viability (COR-L 105; first compound 0.2 µM): 0.331 | relative viability (COR-L 105; first compound 0.6325 µM): 0.361 | relative viability (COR-L 105; first compound 2 µM): 0.244 | relative viability (NCI-H2023; first compound 0.02 µM): 0.267 | relative viability (NCI-H2023; first compound 0.2 µM): 0.317 | relative viability (NCI-H2023; first compound 0.6325 µM): 0.242 | relative viability (NCI-H2023; first compound 2 µM): 0.197 | relative viability (NCI-H1792; first compound 0.02 µM): 0.293 | relative viability (NCI-H1792; first compound 0.2 µM): 0.239 | relative viability (NCI-H1792; first compound 0.6325 µM): 0.302 | relative viability (NCI-H1792; first compound 2 µM): 0.263 | relative viability (HCC-366; first compound 0.02 µM): 0.132 | relative viability (HCC-366; first compound 0.2 µM): 0.151 | relative viability (HCC-366; first compound 0.6325 µM): 0.107 | relative viability (HCC-366; first compound 2 µM): 0.103 | relative viability (NCI-H1755; first compound 0.02 µM): 0.424 | relative viability (NCI-H1755; first compound 0.2 µM): 0.408 | relative viability (NCI-H1755; first compound 0.6325 µM): 0.431 | relative viability (NCI-H1755; first compound 2 µM): 0.26 | relative viability (NCI-H23; first compound 0.02 µM): 0.517 | relative viability (NCI-H23; first compound 0.6325 µM): 0.424 | relative viability (NCI-H23; first compound 2 µM): 0.35 | relative viability (HCC-15; first compound 0.02 µM): 0.797 | relative viability (HCC-15; first compound 0.2 µM): 0.585 | relative viability (HCC-15; first compound 0.6325 µM): 0.684 | relative viability (HCC-15; first compound 2 µM): 0.539 | relative viability (NCI-H1793; first compound 0.02 µM): 0.345 | relative viability (NCI-H1793; first compound 0.2 µM): 0.213 | relative viability (NCI-H1793; first compound 0.6325 µM): 0.41 | relative viability (NCI-H1793; first compound 2 µM): 0.408 | relative viability (NCI-H1437; first compound 0.02 µM): 0.416 | relative viability (NCI-H1437; first compound 0.2 µM): 0.418 | relative viability (NCI-H1437; first compound 0.6325 µM): 0.454 | relative viability (NCI-H1437; first compound 2 µM): 0.393 | relative viability (NCI-H650; first compound 0.02 µM): 0.771 | relative viability (NCI-H650; first compound 0.2 µM): 0.837 | relative viability (NCI-H650; first compound 0.6325 µM): 0.871 | relative viability (NCI-H650; first compound 2 µM): 0.86 | relative viability (NCI-H1915; first compound 0.02 µM): 0.952 | relative viability (NCI-H1915; first compound 0.2 µM): 0.79 | relative viability (NCI-H1915; first compound 0.6325 µM): 0.928 | relative viability (NCI-H1915; first compound 2 µM): 0.767 | relative viability (LC-2-ad; first compound 0.02 µM): 0.578 | relative viability (LC-2-ad; first compound 0.6325 µM): 0.443 | relative viability (LC-2-ad; first compound 2 µM): 0.362 | relative viability (PC-14; first compound 0.02 µM): 0.593 | relative viability (PC-14; first compound 0.2 µM): 0.337 | relative viability (PC-14; first compound 0.6325 µM): 0.0893 | relative viability (PC-14; first compound 2 µM): 0.0627 | relative viability (NCI-H1395; first compound 0.02 µM): 0.603 | relative viability (NCI-H1395; first compound 0.2 µM): 0.497 | relative viability (NCI-H1395; first compound 0.6325 µM): 0.672 | relative viability (NCI-H1395; first compound 2 µM): 0.528 | relative viability (COR-L23; first compound 0.02 µM): 0.721 | relative viability (COR-L23; first compound 0.2 µM): 0.568 | relative viability (COR-L23; first compound 0.6325 µM): 0.75 | relative viability (COR-L23; first compound 2 µM): 0.675 | relative viability (201T; first compound 0.02 µM): 0.702 | relative viability (201T; first compound 0.2 µM): 0.627 | relative viability (201T; first compound 0.6325 µM): 0.603 | relative viability (201T; first compound 2 µM): 0.554 | relative viability (EMC-BAC-2; first compound 0.02 µM): 0.546 | relative viability (EMC-BAC-2; first compound 0.2 µM): 0.507 | relative viability (EMC-BAC-2; first compound 0.6325 µM): 0.497 | relative viability (EMC-BAC-2; first compound 2 µM): 0.34 | relative viability (NCI-H358; first compound 0.02 µM): 0.348 | relative viability (NCI-H358; first compound 0.2 µM): 0.226 | relative viability (NCI-H358; first compound 0.6325 µM): 0.284 | relative viability (NCI-H358; first compound 2 µM): 0.257 | relative viability (SK-MES-1; first compound 0.02 µM): 0.375 | relative viability (SK-MES-1; first compound 0.2 µM): 0.256 | relative viability (SK-MES-1; first compound 0.6325 µM): 0.267 | relative viability (SK-MES-1; first compound 2 µM): 0.183
